Marks after values point to notes of the source that are not given here.
Legend:
[1] = Immune status in early terms after irradiation; format: in vivo, human; conditions: after IM862 therapy
Protocol: The patients described in Example 42 were tested for blood parameters the first few days after exposure to the radiation of the Chernobyl accident. It could be seen from Table 3 below that response to the treatment was observed even after a few weeks of treatment.

[2] = Radiation injury patients (Example 67); format: in vivo, human; conditions: IM862 100 μg 10 days, 263 patients
From the text: A total of 263 patients and 18 control patients sustained exposure to radiation injury. […] A repeated course may be proscribed on the basis of immunological indices, and averages every 4 to 6 months. […] There was an arresting of asthenic syndrome, and an arresting of the somatic pathological exacerbations and reduction of opportunistic infections.

[3] = tested on: Mycobacterium tuberculosis
[4] = Infected patients (Example 96); format: in vivo, human; conditions: IM862 100 μg 5-10 days, 36 patients
From the text: A total of 36 patients infected and 24 patients infected were controls.

[5] = Thymectomized patients; format: in vivo, human; conditions: IM862 100 μg daily 10 days, repeated every 4-6 months, 12 patients
From the text: Prior to therapy these individuals had experienced frequent serious infections including upper respiratory infections.

[6] = tested on: T cells; experiment: Intracellular cAMP in T cells; format: cell-based
[7] = Infected patients with icterus (Example 95); format: in vivo, human; conditions: IM862 100 μg 5-10 days, 48 patients
From the text: The hematological and immunological indices were normalized.

[8] = Spontaneous tumorigenesis, experimental models; format: in vivo; conditions: IM862 prophylactically
[9] = Chronic prostatitis, clinical result and immunological examination
Protocol: A clinical study of the preparation was conducted in 34 chronic prostatitis patients having active inflammation. Patients were aged 22 to 45 years old. Diagnosis was established by patient complaints, a medical history, palpation of the prostate, and laboratory investigation methods (microscopic examination of prostate gland secretions, spermography, three-cup urinalysis).
A traditional treatment plan was followed simultaneously, using antibacterial preparations, uroantiseptics, physical procedures, prostate gland massage, and therapeutic exercise.
Measurement reliability of the obtained indices was evaluated with the use of variable statistics methods.
The persistent disappearance (over an observation period of 1-1.5 months) of painful sensations, leukocyturia, the lowering of the leukocyte count to normal levels in prostate gland secretions and ejaculate, and the overall improvement in the general state of the patient were all deemed to be a good result.
The normalization of all laboratory indices while complaints of pain persisted in the perineum, sacrum, anal region, scrotum, etc. was rated as a satisfactory result.
The second group was made up of patients with lowered initial indices, and the third had patients with elevated initial indices.

[10] = Cancer patients after radiation and chemo-therapy; format: in vivo, human; conditions: IM862 100 μg daily 10 days, 246 patients
From the text: If it vas determined necessary based on immunological indices, the treatment regimen was repeated in 4-6 months.

[11] = tested on: skin grafts; experiment: Skin allograft survival in mice; format: in vivo
[12] = tested on: Staphylococci; experiment: Antibiotic-sensitivity of staphylococci from skin lesions (MIC, series cultivation); format: cell-based; conditions: after IM862 use (initially 10 of the 15)
From the text: Staphylococci extracted from dermal lesions were initially sensitive to 10 of the 15 antibiotics being assayed (Table 25).

[13] = tested on: Candida albicans; experiment: Candida albicans intraperitoneal infection in guinea pigs; format: in vivo
From the text: Two groups of guinea pigs were inoculated with Candida albicans by intraperitoneal injection. […] The other group was not treated.
Animals were sacrificed at day 5 and day 10. The peritoneal cavities were examined for signs of inflammation. These signs included number of infectious foci adherent to the omentum, exudate, fibrin deposition, quantitative fungal cultures, and the number of neutrophils, macrophages, and lymphocytes infiltrating the peritoneum.

[14] = Patients with fever, toxic symptoms, jaundice (Example 101); format: in vivo, human; conditions: IM862 IM or intranasally 5-10 days, 39 patients
From the text: A total of 39 patients were studied with 27 patient controls. […] Immunological indices were normalized.

[15] = tested on: hemorrhagic Dengue Fever; experiment: Hemorrhagic Dengue Fever study, duration of symptoms; format: in vivo, human; conditions: IM862 administered
Protocol: All those examined were representatives of organized collectives and had the same type of working and living conditions prior to the onset of illness. The patients were referred to in-patient treatment to the 175th Military Hospital in Ho Chi Minh City during an epidemic of Dengue fever in southern Socialist Republic of Vietnam.
Diagnoses of HDF were established by criteria recommended by the WHO (1986). Serological analyses were performed at the Arbovirus Infections Laboratory of the Pasteur Institute (Ho Chi Minh City). Disease severity was 1-2 in all patients.
The patients were divided into one group treated with IM862 and one group not receiving IM862. […] The efficacy of therapy was determined by observation of the duration of the most frequently encountered signs and symptoms of the disease (Table 14).

[16] = Young sportsmen, upper respiratory infections; format: in vivo, human; conditions: IM862 intranasally 1 μg/kg, 3 days, 84 sportsmen
From the text: The control group consisted of 44 persons.

[17] = following two months of treatment, with chemotherapy
[18] = 34 chronic prostatitis patients
[19] = after treatment 100 μg i.m. for 5 days
[20] = elevated in 1 patient, after treatment
[21] = initial level lowered n = 14, after treatment
[22] = normal in 34 patients, after treatment

Substance: Glu-Trp [IM862]
- C3 [1]: 0.68 ± 0.04 g/L
- CD2, % [1]: 50.9 ± 2.4%
- CD2, abs [1]: 1.13 ± 0.07** 10^9/l
- CD2-DR+, % [1]: 31 ± 3 %
- CD2-DR+, abs [1]: 0.69 ± 0.08** 10^9/l
- CD19, % [1]: 30.5 ± 1.9 %
- CD19, abs [1]: 0.68 ± 0.04** 10^9/l
- E-RFC, % [1]: 23.4 ± 2.6%
- IgA [1]: 1.11 ± 0.09 g/L
- IgG [1]: 9.2 ± 0.7 g/L
- IgM [1]: 0.58 ± 0.10 g/L
- LMI with ConA, % [1]: 60 ± 7 %
- Leukocytes, abs [1]: 6.4 ± 0.8** 10^9/l
- Lymphocytes, abs [1]: 2.27 ± 0.16** 10^9/l
- clinical effect [2]: restoration of normal or near normal immune indices
- effect on immunological indices ([3]; after 2 months of observation): normalizing effect
- positive changes in the lungs, cases out of 37 ([3]; after 4-6 months of in-hospital treatment): 35 cases
- improvement, number of patients [3, 17]: 27
- significant improvement, number of patients [3, 17]: 9
- clinical effect [4]: reduction of fever
- clinical effect [5]: normalization of immunologic indices
- intracellular cAMP concentrations [6]: an increase of intracellular cAMP concentrations is observed
- clinical effect [7]: normalization of fever
- spontaneous tumorigenesis [8]: diminished frequency of spontaneous tumorigenesis
- good result, share of patients [9, 18]: 76.5%
- satisfactory result, number of patients [9, 18]: 8 patients
- good result, number of patients ([9]; 34 chronic prostatitis patients, IM862 with traditional treatment): 26 patients
- elevated and lowered immune indices upon completion of treatment ([9]; IM862 use): a normalization was observed in all the elevated and lowered indices
- B-lymphocytes % [9, 19]: 27.24 ± 1.44%
- B-lymphocytes Abs. quantity ×10^9 [9, 19]: 0.54 ± 0.10 ×10^9
- Complement units [9, 19]: 29.43 ± 0.53 units
- IgA [9, 19]: 2.20 ± 0.12 g/L
- IgG [9, 19]: 12.52 ± 0.63 g/L
- Imm. complexes units [9, 19]: 0.080 ± 0.004 units
- Phagocytosis % [9, 19]: 39.41 ± 3.51%
- T-lymphocytes % [9, 19]: 44.44 ± 2.34%
- T-lymphocytes Abs. quantity ×10^9 [9, 19]: 0.88 ± 0.07 ×10^9
- IgG [9, 20]: 14.71 ± 1.42 g/L
- IgM [9, 20]: 3.44 g/L
- T-lymphocytes % ([9]; initial level elevated n = 2, after treatment): 40.0 ± 15.5%
- Complement units ([9]; initial level elevated n = 7, after treatment): 30.7 ± 0.89 units
- B-lymphocytes % ([9]; initial level elevated n = 8, after treatment): 24.8 ± 2.91^x %
- Imm. complexes units ([9]; initial level elevated n = 19, after treatment): 0.08 ± 0.006^x units
- Phagocytosis % ([9]; initial level elevated n = 26, after treatment): 37.7 ± 3.94%
- Phagocytosis % ([9]; initial level lowered n = 5, after treatment): 36.6 ± 8.54^x %
- Imm. complexes units ([9]; initial level lowered n = 8, after treatment): 0.07 ± 0.011 units
- B-lymphocytes % ([9]; initial level lowered n = 10, after treatment): 26.0 ± 2.91^x %
- Complement units [9, 21]: 34.2 ± 0.93^x units
- T-lymphocytes % [9, 21]: 37.9 ± 2.24%
- Phagocytosis % ([9]; initial level normal n = 3, after treatment): 58.6 ± 17.98%
- Imm. complexes units ([9]; initial level normal n = 7, after treatment): 0.08 ± 0.006 units
- Complement units ([9]; initial level normal n = 13, after treatment): 29.3 ± 0.88 units
- B-lymphocytes % ([9]; initial level normal n = 16, after treatment): 29.2 ± 2.15%
- T-lymphocytes % ([9]; initial level normal n = 18, after treatment): 50.0 ± 3.57%
- IgG ([9]; lowered in 2 patients, after treatment): 7.80 ± 1.13 g/L
- IgM ([9]; normal in 33 patients, after treatment): 2.08 ± 0.12 g/L
- Ig (character image) l [9, 22]: 2.20 ± 0.12
- IgG [9, 22]: 12.51 g/L
- clinical effect [10]: normalization of immunological indices
- GRAFT REJECTION TIME ([11]; mice, daily for 5 treatments prior to grafting, IM862 0.01 mg/kg, Thymalin 1.0 mg/kg): 8.3 ± 0.4 days
- graft survival ([11]; vs animals not receiving Glu-Trp): prolonged survival
- number of the 15 tested antibiotics to which organisms from the infected foci were sensitive [12]: 14
- inflammatory changes in the omentum ([13]; after 5 days): did not principally differ between the groups
- quantitative fungal cultures ([13]; after 10 days): fewer fungi in the treated animals
- inflammatory changes in the omentum ([13]; after 10 days, 1 μg/kg per day i.p. for four days): less pronounced than in untreated animals
- clinical effect [14]: reduction of fever
- Duration of Abdominal pain [15]: 7.7 ± 1.1 days
- Duration of Anorexia [15]: 7.5 ± 0.8 days
- Duration of Headaches [15]: 8.1 ± 0.9 days
- Duration of Hepatomegaly [15]: 11.3 ± 0.8 days
- Duration of Insomnia [15]: 7.1 ± 0.7 days
- Duration of Joint pain [15]: 7.4 ± 0.7 days
- Duration of Low back pain [15]: 8.1 ± 0.8 days
- Duration of Lumbar pain [15]: 8.7 ± 0.7 days
- Duration of Ophthalmalgia [15]: 6.6 ± 0.8 days
- Duration of Splenomegaly [15]: 9.6 ± 0.7 days
- Duration of Weakness/fatigue [15]: 9.3 ± 0.8 days
- Duration of Fever, Prescription 2-4 days ([15]; total dose 500 μg): 4.7 ± 0.2 days
- Duration of Fever, Prescription 2-6 days ([15]; total dose 500 μg): 5.2 ± 0.3 days
- reduction of upper respiratory infections and rates of illness [16]: 4 fold

— patent US20030198617A1, “Pharmaceutical tryptophan containing dipeptide compositions and methods of use thereof” (priority 1993, published 2003)
